Source: US20200360331A1, “COMPOSITIONS COMPRISING 15-HEPE AND/OR 15-HETrE AND METHODS OF TREATING OR PREVENTING CARDIOMETABOLIC DISEASE, METABOLIC SYNDROME, AND/OR RELATED DISEASES” (Afimmune Limited, priority 2019, published 2020)
“Also recorded” adds a separate entry of the source.

Tests used:
[1] = system: UUO mice; experiment: UUO study: Sirius red staining of kidney sections, fibrosis area; type: in vivo, C57BL/6 mice; conditions: for fibrosis area compared with the Vehicle group: Mann-Whitney U test (p<0.1); for Sirius red-positive area / Sirius red-positive area (%) _Median: kidney
Experimental: UUO Surgery: On day 0 of the study, UUO surgery was performed on mice under pentobarbital sodium anesthesia. The mouse's hair was first shaved and then abdomen cut open to exteriorize the mouse's left ureter. The ureter was ligated 4-0 nylon sutures at two points. The mouse's peritoneum and skin were then closed with sutures, and the mouse transferred to a clean cage until recovered from the anesthesia. Sham operated mice had their left ureter exposed but not ligated.
Histopathological analysis: To visualize collagen deposition, kidney sections were stained using picro-Sirius red solution (Waldeck, Germany). For quantification of interstitial fibrosis area, bright field images in the corticomedullary region were captured using a digital camera (e.g., DFC295; Leica Microsystems, Germany) at 200-fold magnification, and the positive areas in 5 fields/section were measured using ImageJ software (National Institute of Health, USA).

[2] = system: NAFLD patients; experiment: Phase IIa NAFLD study: OWL Liver Care diagnostic test for NASH; type: in vivo, human
Source text: (§1) The study was planned to include 96 evaluable patients with 32 patients randomized per treatment group.
OWL Liver Care is a test that was developed based on the plasma lipidomics in biopsy-confirmed NASH patients and provides high predictive values. OWL Liver Care has an area under the curve (AUC) of 0.88 for distinguishing NAFLD and normal liver patients and an AUC of 0.79 for distinguishing NAFLD without steatohepatitis and NASH patients.

[3] = system: NAFLD patients; experiment: Phase IIa NAFLD study: metabolic parameters and insulin resistance; type: in vivo, human
Experimental: as §1
HOMA-IR/Adipo-IR: HOMA-IR/Adipo-IR levels are a method of measuring insulin resistance. HOMA-IR is calculated by multiplying fasting plasma insulin (FPI) by fasting plasma glucose (FPG), then dividing by the constant 405. Adipo-IR is calculated by multiplying fasting non-esterified fatty acids (NEFA)×fasting insulin. Blood samples were taken to assess HOMA-IR and Adipo-IR at Visit 2/Baseline, Visit 3/Week 2, Visit 4/Week 4, Visit 6/Week 8, Visit 8/Week 12, Visit 10/Week16 and Follow up Visit 11/Week 20. All subjects were required to have been fasted for a minimum of 8 hours prior to blood sampling. If subjects had not fasted for a minimum of 8 hours, the duration of fasting time was recorded, and subjects encouraged to fast appropriately for the next clinical visit.
Exploratory analysis: The exploratory analysis included analysis of lipid and metabolic parameters including total cholesterol, triglycerides, very low-density lipoprotein cholesterol (VLDL-C), low density lipoprotein cholesterol (LDL-C), high density lipoprotein cholesterol (HDL-C), non-high-density lipoprotein cholesterol (non-HDL-C), remnant-like particle cholesterol (RLP-C), fasting glucose, insulin, free fatty acids and hemoglobin A1C (HbA1C). Additional exploratory analysis included high throughput lipidomics and proteomics.

[4] = system: TGF-β; experiment: BDL study: quantitative RT-PCR of liver, TGF-β; type: in vivo, C57BL/6J mice; conditions: BDL mice liver
Experimental: (§2) Quantitative RT-PCR: Total ribonucleic acid (RNA) was extracted from liver samples using RNAiso (Takara Bio, Japan) according to the manufacturer's instructions. One μg of RNA was reverse-transcribed using a reaction mixture containing 4.4 mM magnesium chloride (MgCl2) (F. Hoffmann-La Roche, Switzerland), 40 U RNase inhibitor (Toyobo, Japan), 0.5 mM dNTP (Promega, USA), 6.28 μM random hexamer (Promega), 5× first strand buffer (Promega), 10 mM dithiothreitol (Invitrogen, USA) and 200 U MMLV-RT (Invitrogen) in a final volume of 20 μL. The reaction was carried out for 1 hour at 37° C., followed by 5 minutes at 99° C. Real-time PCR was performed using real-time PCR DICE and TB Green™ Premix Ex Taq™ II (Takara Bio). To calculate the relative mRNA expression level, the expression of each gene (α-SMA, TIMP-1, TGF-β and Collagen Type 1) was normalized to that of reference gene 36B4 (gene symbol: Rplp0). Information regarding the PCR-primer sets and the plate layout are described in Tables 8 and 9.

[5] = system: TIMP-1; experiment: UUO study: quantitative RT-PCR of kidney, TIMP-1; type: in vivo, C57BL/6 mice; conditions: UUO mice kidney
Experimental: as §2, with “from kidney” for “from liver”, “[…] (mM) of” for “4.4 mM”, “relative […] (mRNA)” for “relative mRNA”, “gene (e.g., α-SMA,” for “gene (α-SMA,”, “Tables 1” for “Tables 8”, “and 2.” for “and 9.”

[6] = system: Alpha-SMA; experiment: UUO study: quantitative RT-PCR of kidney, Alpha-SMA; type: in vivo, C57BL/6 mice; conditions: UUO mice kidney
Experimental: as §2, with “from kidney” for “from liver”, “[…] (mM) of” for “4.4 mM”, “relative […] (mRNA)” for “relative mRNA”, “gene (e.g., α-SMA,” for “gene (α-SMA,”, “Tables 1” for “Tables 8”, “and 2.” for “and 9.”

[7] = system: TGF-β-stimulated intracellular signaling (SMAD2/3 phosphorylation); experiment: TGF-β-stimulated SMAD2/3 phosphorylation in LX2 liver stellate cells; type: cell-based, human; conditions: 0 μM to 100 μM for 24 hours, then 30 min TGF-β stimulation, listed as 15-HEPE
[8] = 1 g per day, baseline diagnosis NASH
[9] = 1 g per day, baseline diagnosis No NAFLD
[10] = 1 g per day, baseline diagnosis Steatosis
[11] = 2 g per day, baseline diagnosis NASH
[12] = 2 g per day, baseline diagnosis No NAFLD
[13] = 2 g per day, baseline diagnosis Steatosis
[14] = NAFLD patients, 1 g or 2 g per day
[15] = baseline to Week 16, 1 g or 2 g per day vs placebo
[16] = relative mRNA normalized to 36B4, 50 mg/kg PO QD Day 0-13
[17] = relative mRNA normalized to 36B4, 500 mg/kg PO QD Day 0-13

CC/C=C\CC(O)/C=C/C=C\C/C=C\C/C=C\CCCC(=O)O (stereo not drawn) [DS102, 15-hydroxy-eicosa-5Z,8Z,11Z,13E,17Z-pentaenoic acid]
fibrosis area compared with the Vehicle group ([1]; 50 mg/kg): tended to decrease; also recorded: reduction trend
fibrosis area compared with the Vehicle group ([1]; 500 mg/kg): tended to decrease; also recorded: reduction trend
Sirius red-positive area ([1]; 50 mg/kg PO QD Day 0-13, Day 14): 5.01 ± 3.11%
Sirius red-positive area (%) _Median ([1]; 50 mg/kg PO QD Day 0-13, Day 14, median): 4.19 ± 3.33%
Sirius red-positive area ([1]; 500 mg/kg PO QD Day 0-13, Day 14): 4.01 ± 1.92%
Sirius red-positive area (%) _Median ([1]; 500 mg/kg PO QD Day 0-13, Day 14, median): 3.08 ± 1.16%
OWL test change in diagnosis (Week 16 vs. baseline): Improvement, patients [2, 8]: 5
OWL test change in diagnosis (Week 16 vs. baseline): Stable, patients [2, 8]: 14
OWL test change in diagnosis (Week 16 vs. baseline): Stable, patients [2, 9]: 3
OWL test change in diagnosis (Week 16 vs. baseline): Worsening, patients [2, 9]: 1
OWL test change in diagnosis (Week 16 vs. baseline): Stable, patients [2, 10]: 2
OWL test change in diagnosis (Week 16 vs. baseline): Worsening, patients [2, 10]: 3
OWL test change in diagnosis (Week 16 vs. baseline): Improvement, patients [2, 11]: 5
OWL test change in diagnosis (Week 16 vs. baseline): Stable, patients [2, 11]: 7
OWL test change in diagnosis (Week 16 vs. baseline): Stable, patients [2, 12]: 2*, **
OWL test change in diagnosis (Week 16 vs. baseline): Worsening, patients [2, 12]: 1
OWL test change in diagnosis (Week 16 vs. baseline): Improvement, patients [2, 13]: 1
OWL test change in diagnosis (Week 16 vs. baseline): Stable, patients [2, 13]: 9
OWL test change in diagnosis (Week 16 vs. baseline): Worsening, patients [2, 13]: 4
OWL liver care diagnosed NASH ([2]; Week 16, dose dependent, compared to placebo): significantly improved and normalized
insulin sensitivity and glycemic control [3, 14]: improvement
markers of metabolic overload [3, 14]: statistically significant reduction
insulin resistance indices (HOMA-IR and adipo-IR levels) ([3]; Week 16, 1 g or 2 g per day vs placebo): reduction in HOMA-IR and adipo-IR levels
insulin resistance indices (HOMA-IR and adipo-IR levels) ([3]; Week 16, 2 g, Per Protocol Set (PPS)): significant improvements
HbA1c levels, glycemic control [3, 15]: clinically significant improvements
insulin, glucose, and free fatty acid levels [3, 15]: reduction
TGF-β mRNA expression level compared with the Vehicle group ([4]; 500 mg/kg): significant decrease
TGF-β mRNA expression level vs Vehicle group ([4]; DS102 treatment groups): no significant differences
TGF-β gene expression [4, 16]: 1.48 ± 0.48
TGF-β gene expression ([4]; relative mRNA normalized to 36B4, 250 mg/kg PO QD Day 0-13): 1.50 ± 0.44
TGF-β gene expression [4, 17]: 1.00 ± 0.23
TIMP-1 gene expression [5, 16]: 138.30 ± 30.39
TIMP-1 gene expression [5, 17]: 124.80 ± 28.60
Alpha-SMA gene expression [6, 16]: 3.74 ± 0.81
Alpha-SMA gene expression [6, 17]: 5.54 ± 1.54
TGF-β-stimulated intracellular signaling (SMAD2/3 phosphorylation) [7]: inhibits TGF-β-stimulated intracellular signaling; also recorded: inhibited TGF-β induced intracellular signaling (SMAD2/3)
